Results on one molecule are retold here after patent US11191772B2, “Use” (DSM IP ASSETS B.V., priority 2017, dated 2021).

Holding throughout (assay): Antimicrobial efficacy challenge test (in analogy to NF EN ISO11930)
For assay [1], the system named is C. albicans. The format is cell-based, Candida albicans. To be noted: Erythrulose 0.4 wt.-%, 24 h after contamination, 22° C., 0 h count 19000. How it is done:
(§1) The antimicrobial efficacy is assessed in analogy to the regulatory challenge test method (NF EN ISO11930). Thus, a solution of Erythrulose from DSM Nutritional products in two different concentrations was prepared under sterile conditions. For this the Erythrulose was solubilized in physiological serum with 0.85 wt.-% NaCl. Phenoxyethanol was solubilized in a physiological serum with 0.85 wt.-% NaCl further comprising 5 wt.-% ethanol to ensure solubility. The solutions were deposed in 96-deep well plates (1.6 ml/well). The wells were contaminated with the respective bacterial or the fungal strains at 1.9*10^5 to 8.1*10^5 cfu/ml for the bacteria and 3.3*10^3 to 3.8*10^4 cfu/ml for the fungi to obtain the initial contamination as outlined in table 1 and 2. After contamination each well was thoroughly mixed to ensure a homogeneous distribution of the microorganism. Then each plate was incubated at 22° C. for 24 h. The counting of the (remaining) population was carried out 24 h after contamination.

The subject of assay [2] is Corynebacterium xerosis. Type of assay: cell-based. To be noted: for colony counts 24 h: 22° C. As for the experimental part:
as §1

Assay [3] deals with Pseudomonas aeruginosa. The format is cell-based. To be noted: for colony counts 24 h: 22° C. As for the experimental part:
as §1

Assay [4] has as its system Escherichia coli. Type of assay: cell-based. To be noted: for colony counts 24 h: 22° C. How it is done: as §1
Assay [5] has as its system Propionibacterium acnes. The format is cell-based. To be noted: for colony counts 24 h: 22° C. As for the experimental part: as §1
Assay [6] concerns Aspergillus brasiliensis. The format is cell-based. The note with it: 22° C. How it is done: as §1
The test system of assay [7] is Staphylococcus epidermidis. The format is cell-based. The note with it: for colony counts 24 h: 22° C. As for the experimental part:
as §1

For assay [8], the system named is S. aureus. The format is cell-based, Staphylococcus aureus. To be noted: Erythrulose 0.4 wt.-%, 24 h after contamination, 22° C., 0 h count 190000. As for the experimental part:
as §1

Take `O=C(CO)[C@H](O)CO` (racemic) [Erythrulose, erythrulose]: the “colony counts 24 h” value is 78 cfu/ml in assay [1]; 55 cfu/ml in assay [2] (Erythrulose 0.08% active, Corynebacterium xerosis, 24 h, t0 count 250000); 0 cfu/ml in assay [2] (Erythrulose 0.4 wt.-%, C. xerosis, 24 h after contamination, 0 h count 810000); 530000 cfu/ml in assay [3] (Erythrulose 0.08% active, Pseudomonas aeruginosa, 24 h, t0 count 450000); 0 cfu/ml in assay [3] (Erythrulose 0.4 wt.-%, P. aeruginosa, 24 h after contamination, 0 h count 810000); 530000 cfu/ml in assay [4] (Erythrulose 0.08% active, Escherichia coli, 24 h, t0 count 250000). Also, the “colony counts 24 h” value is on record as 280000 cfu/ml in assay [4] (Erythrulose 0.4 wt.-%, E. coli, 24 h after contamination, 0 h count 440000); 3300 cfu/ml in assay [5] (Erythrulose 0.08% active, Propionibacterium acnes, 24 h, t0 count 310000); 55000 cfu/ml in assay [5] (Erythrulose 0.4 wt.-%, P. Acnes, 24 h after contamination, 0 h count 500000); 10 cfu/ml in assay [6] (Erythrulose 0.08% active, Aspergillus brasiliensis, 24 h, t0 count 10000); 330 cfu/ml in assay [6] (Erythrulose 0.4 wt.-%, A. brasiliensis, 24 h after contamination, 0 h count 38000); 0 cfu/ml in assay [7] (Erythrulose 0.08% active, Staphylococcus epidermidis, 24 h, t0 count 560000). Besides, the “colony counts 24 h” value in assay [7] (Erythrulose 0.4 wt.-%, S. epidermidis, 24 h after contamination, 0 h count 500000) was found to be 0 cfu/ml; in assay [8] it was 0 cfu/ml. The “antimicrobial activity (in words)” value in assay [2] (C. xerosis, very low concentration (table 2, 0.08%)) was “particularly and selectively active”; in assay [3] (P. aeruginosa, very low concentration (table 2, 0.08%)) it was “not active anymore”; in assay [4] (E. coli, very low concentration (table 2, 0.08%)), “not active anymore”; in assay [5] (P. acnes, very low concentration (table 2, 0.08%)) it was “good antimicrobial activity”; in assay [7] (S. epidermidis, very low concentration (table 2, 0.08%)) it was “particularly and selectively active”.
